The nature of the series: gradient 5% acetonitrile 3 min, to 50% in 2 min, to 85% in 15 min, held 3 min, 100 µL/min. The following applies: column: Zorbax Extend-C18 2.1 x 50 mm; eluents: water / acetonitrile, 0.1% formic acid. A digest of the protocol: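 The mobile phases were water and acetonitrile, each with 0.1% formic acid, pumped at 100 μL/min through a Zorbax Extend-C18 column (2.1 × 50 mm, 1.8 μm). Pure standards were injected as mixtures of ~100 molecules and detected by a quadrupole time-of-flight mass spectrometer in positive and negative ionization mode. Retention time came from computationally picked adduct peaks, each inspected by hand.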
Regarding `Cc1cc(N2CCN(S(=O)(=O)c3ccc(Cl)c(Cl)c3)CC2)nc(NC2CCCCC2)n1`, the RP-LC retention time turned out to be 922 s. In the case of `CCc1ccc2nc(C)cc(C(=O)NC3CC3)c2c1`, the RP-LC retention time came to 605 s. As to `O=C(Cc1ccsc1)Nc1ccc(N2CCN(Cc3ccccc3)C2=O)nc1`, the RP-LC retention time worked out at 643 s. On to `COc1cc(NS(=O)(=O)c2cn(C(C)C)c3ncccc23)cc(OC)c1`, for which the RP-LC retention time turned out to be 876 s. For the molecule `CCOC(=O)c1ccccc1NC(=O)Cn1cnc2nc(N3CCCC(C(=O)NC)C3)sc2c1=O` (stereo not given), the RP-LC retention time was 640 s. Take `Cc1cc(N2CCN(C(=O)c3ccc(F)cc3)CC2)nc(N2CCOCC2)n1`: the RP-LC retention time turned out to be 608 s. In turn, `O=C(c1cc(-c2cccnc2)n[nH]1)N1CCCC(C(=O)N2CCN(C(=O)c3ccco3)CC2)C1` (stereo not given) returned an RP-LC retention time of 556 s. For `COc1ccc(-c2csc(C)n2)cc1S(=O)(=O)N(C)c1ccc(C)cc1` the value was 1040 s; for `Cc1ccsc1C(=O)N1CCC2(CC1)NC(=O)N(Cc1cccc(Cl)c1)C2=O`, 852 s. In the case of `CCS(=O)(=O)N1CCCc2cc(C(=O)NCC3CCCO3)ccc21` (stereo not given), the RP-LC retention time is 708 s. For `O=C(c1n[nH]c2ccccc12)N1CCCC1c1nc(-c2ccc(F)cc2F)no1` (stereo not given) the value was 930 s; for `O=C(NCC(O)c1ccsc1)c1ccc2nsnc2c1` (stereo not given), 659 s; for `Cc1ccc(C)c(N2CCN(C(=O)c3ccc(C)c(NC(=O)C4=CSCCO4)c3)CC2)c1`, 1070 s.

In turn, `O=C(NC1CCN(c2cc(-c3ccc(Cl)cc3)[nH]n2)C1)c1ccc(Br)cc1` (stereo not given) had an RP-LC retention time of 913 s.

`COc1ccc2c(c1)C1(CCN(S(=O)(=O)c3ccccc3F)C1)C(=O)N2C` (stereo not given) had an RP-LC retention time of 901 s.

As to `O=C(Cc1nnc(-c2ccccc2)o1)NCc1ccncc1`, the RP-LC retention time is 566 s. The result for `Cc1nc(-c2cccc(NC(=O)c3ncccn3)c2)cs1` reads 665 s; that for `CNC(=O)C1CCCN(c2nc3ncn(CC(=O)Nc4ccc(F)c(Cl)c4)c(=O)c3s2)C1` (stereo not given), 693 s; that for `Cc1ccc(CN2CCN(C3CCN(S(=O)(=O)c4ccccc4Cl)CC3)C(=O)C2=O)cc1`, 847 s.

Molecule `O=C(NCCN1CCCC1)c1nc2ccccn2c1-c1ccc(F)cc1` gave an RP-LC retention time of 611 s.

In turn, `O=C(c1c[nH]c2ncccc12)N1CCCCCC1` displayed an RP-LC retention time of 646 s. The result for `COc1ccc(-c2cc3n(n2)CCCN(C(=O)Cc2ccsc2)C3)cc1` reads 822 s; that for `O=C(C1=NNc2ccc(Cl)cc2S1(=O)=O)N1CCOCC1`, 663 s; that for `Cc1ccsc1C(=O)Nc1cnc(N2CCCCC2)nc1`, 915 s.

In turn, `Cc1nc(-c2ccncc2)nc2c1CCC(=O)N2Cc1cccnc1` yielded an RP-LC retention time of 553 s. The result for `Cc1ccccc1CNC(=O)CN1CCN(Cc2ccc(F)cc2)C1=O` reads 803 s; that for `CCOC(=O)CNC(=O)N1CCc2nc(-c3ccccc3)ncc2C1`, 720 s. For the molecule `Cc1ccc(CN2CCC(CNC(=O)c3c(C)oc4c3C3=NCCN3C=N4)C2)cc1` (stereo not given), the RP-LC retention time came out at 597 s. Molecule `Cc1cc2c(c(=O)n(-c3ccccc3)c(=O)n2CC(=O)Nc2cccc(F)c2)n1C` came in with an RP-LC retention time of 837 s. The result for `CCCN1CCn2cc(S(=O)(=O)Nc3ccc(OC)c(Cl)c3)cc2C1=O` reads 770 s; that for `COc1ccc(NC(=O)N2CCc3nc(-c4ccccc4)sc3C2)cc1OC`, 820 s. `CCc1sc(NC(=O)c2sc(C)nc2C)nc1-c1ccc(Br)cc1` had an RP-LC retention time of 1160 s.

Consider `Cc1ccc(Cl)cc1NC(=O)N1C[C@@H](F)C[C@H]1C(=O)N1CCCCC1`, for which the RP-LC retention time came out at 746 s. In turn, `O=C(C1=NN(Cc2ccc(F)cc2)c2ccc(Cl)cc2S1(=O)=O)N1CCOCC1` came in with an RP-LC retention time of 873 s. On to `CCC(=O)Nc1ccc(CCc2nc3ccc(C(=O)NC(C)c4ccccc4)cc3[nH]2)cc1` (stereo not given), for which the RP-LC retention time stood at 658 s. `CCc1cc(C(=O)Nc2ccc(Cl)cc2)no1` came in with an RP-LC retention time of 997 s.

Turning to `CCCCN1CCN(C(=O)c2c(C)sc3ccn(CC(C)C)c(=O)c23)CC1`, the RP-LC retention time worked out at 632 s. On to `O=C(NCc1ccccc1Br)c1ccc(-c2cncnc2)nc1`, for which the RP-LC retention time was found to be 748 s. In the case of `Cc1cc(Cl)ccc1NC(=O)c1cc2n(n1)CCCC2`, the RP-LC retention time was determined as 975 s. With `Cc1ccc(NS(=O)(=O)c2cc3c(=O)n(C)ncn3c2)cc1`, the RP-LC retention time worked out at 821 s. Regarding `CN1C(=O)c2cccn2CC1C(=O)N1CCc2ccccc21` (stereo not given), the RP-LC retention time came out at 703 s.

For `COc1cccc(NC(=O)Cn2nc3n(c2=O)CCCCC3)c1`, the RP-LC retention time amounted to 668 s. In turn, `Cc1ccc(C(=O)Nc2c(C(=O)NCc3ccc4c(c3)OCO4)[nH]c3ccc(C)cc23)cc1` had an RP-LC retention time of 979 s. In turn, `O=C(Nc1ccc(Cl)cc1)c1c(O)c2cccnc2n(Cc2ccccc2)c1=O` displayed an RP-LC retention time of 1290 s. For `CC(=O)N1CCN(Cc2ccc([C@H](C)Nc3nccc(N4C(=O)OC[C@@H]4C(C)C)n3)cc2)CC1` the value was 642 s. The molecule `O=C(C1CCCC1)N1[C@H]2CC[C@@H]1c1cnc(-c3ccc(F)cc3)nc1C2` showed an RP-LC retention time of 984 s. Take `CC(=O)N1CCC(C(=O)N2CCCn3cc(-c4ccccc4)nc32)CC1`: the RP-LC retention time amounted to 602 s.

The molecule `CSc1ccc(-c2nc3cnccn3c2Nc2ccc(F)cc2)cc1` displayed an RP-LC retention time of 927 s. The result for `CC(C)NC(=O)CN1C(=O)COc2ccc(C(=O)N3CCc4ccccc4C3)cc21` reads 744 s. On to `COc1ccc(Cl)cc1C(=O)Nc1cnc(N2CCCC2)nc1`, for which the RP-LC retention time came to 818 s. The molecule `Cn1nc(C(=O)N2CCCC2)c2c1CCN(C(=O)Nc1ccccc1)C2` registered an RP-LC retention time of 704 s.

In the case of `c1ccc(-c2nc(-c3cnccn3)no2)c(OC2CCN(Cc3ccc4c(c3)CCO4)C2)c1` (stereo not given), the RP-LC retention time was 689 s. For `CN(C)C(CNC(=O)Cn1c(=O)oc2ccccc21)c1cn(C)c2ccccc12` (stereo not given) the value was 575 s; for `Fc1ccc(N2CCN(Cc3nnc(-c4ccccc4)o3)CC2)cc1`, 691 s; for `CCOC(=O)c1cc(C2CC2)nc2c1c(=O)n(Cc1ccc(Br)cc1F)c(=O)n2C`, 1270 s. The molecule `O=c1n(CC2CC2)nc2n1CCN(S(=O)(=O)c1ccccc1C(F)(F)F)C2` displayed an RP-LC retention time of 803 s. The molecule `O=C(NC(NC(=O)c1ccccc1)c1ccccc1)c1ccccc1` yielded an RP-LC retention time of 765 s. `COc1ccc(C2C(C(=O)N3CCCCC3)c3cc(OC)c(OC)cc3C(=O)N2C)cc1OC` (stereo not given): the RP-LC retention time was 706 s. `Cn1nccc1-c1cccc(-c2noc(-c3ccoc3)n2)c1` returned an RP-LC retention time of 938 s. The molecule `CC(=O)N(Cc1ccc(F)cc1)Cc1ccc2c(c1)CN(C(=O)C(C)C)CCO2` had an RP-LC retention time of 804 s. For `CS(=O)(=O)Nc1ccc(C2(C(=O)NCc3cccc(Cl)c3)CCCCC2)cc1` the value was 948 s; for `Cn1cc(-c2nc(C(=O)Nc3cccc(F)c3)cs2)c2cccnc21`, 1020 s; for `COCCN(Cc1ccc(F)cc1)Cc1cc(=O)n2cc(Cl)ccc2n1`, 647 s. Turning to `Cc1ccc2nc(N3CCN(C)CC3)c(-c3noc(C)n3)cc2c1`, the RP-LC retention time worked out at 645 s. For the molecule `CC(C)n1c(=O)sc2cc(S(=O)(=O)N3CCC(C(=O)NCCC4=CCCCC4)CC3)ccc21`, the RP-LC retention time is 1020 s. On to `Cc1ccc(C(=O)Nc2c(-c3ccccc3)nc3ccccn23)cc1[N+](=O)[O-]`, for which the RP-LC retention time is 693 s.

For the molecule `Cc1noc(Cc2nnc(-c3cccc(F)c3)o2)n1`, the RP-LC retention time stood at 730 s. Take `CCCN1CCN(C(=O)c2ccc3c(c2)Sc2ncccc2C(=O)N3CC)CC1`: the RP-LC retention time was determined as 579 s.

`Cc1c(C(=O)N2CCCCC2)c(S(=O)(=O)N2CCN(c3ccccn3)CC2)c(C)n1C` gave an RP-LC retention time of 629 s.

In turn, `O=C(c1ccc(=O)n(CCN2CCOCC2)c1)N1CCN(c2ccccc2F)CC1` registered an RP-LC retention time of 613 s. In turn, `CC(C)(NS(=O)(=O)c1ccc(Oc2ccc(F)cc2)cc1)C(=O)NO` showed an RP-LC retention time of 804 s. The molecule `COc1cccc(N2CCN(C(=O)C3CCN(c4ncnc5c4oc4ccccc45)CC3)CC2)c1` displayed an RP-LC retention time of 794 s. Regarding `COc1ccc(-c2cn3c(CC(=O)N4CCN(c5ccccc5F)CC4)csc3n2)cc1OC`, the RP-LC retention time was determined as 780 s. With `O=c1oc2cc(O)cc(O)c2c2c1CCCC2`, the RP-LC retention time was 708 s. `CSc1ccc(NC(=O)N2CCc3nc[nH]c3C2)cc1` came in with an RP-LC retention time of 590 s.

`CCC(=O)Nc1cc2c(cc1S(=O)(=O)c1ccccc1)n(C)c(=O)n2C` registered an RP-LC retention time of 710 s.

The molecule `CC(C)OCCCNC(=O)CN1C(=O)CCn2nc(-c3cn(C)c4ccccc34)cc21` displayed an RP-LC retention time of 738 s. Take `CCCNc1cc(N2CCC(CCC(=O)NCCN3CCc4ccccc4C3)CC2)ncn1`: the RP-LC retention time was found to be 574 s. For `Cn1ncc2c3ccccc3n(CCCC(=O)N3CCc4ccccc4C3)c2c1=O`, the RP-LC retention time stood at 931 s.

`O=S(=O)(c1cc(-c2nnc(-c3ccc(F)cc3)o2)ccc1Cl)N1CCOCC1` gave an RP-LC retention time of 984 s.

Source of the values: the METLIN SMRT retention time set (Domingo-Almenara et al. 2019).
